This test addresses T1, SCP2 (human sterol carrier protein 2) (Homo sapiens, UniProt P22307).
T1 sequence (P22307 425-547): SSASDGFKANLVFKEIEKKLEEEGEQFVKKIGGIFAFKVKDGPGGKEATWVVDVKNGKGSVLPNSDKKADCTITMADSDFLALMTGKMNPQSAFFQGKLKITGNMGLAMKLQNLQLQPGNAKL
Put plainly: NBD-SA fluorescence displacement titration. Format: binding.

SMILES strings stand for the structures.

By Ki is commonly meant a measure of affinity in units of concentration, obtained from inhibition or displacement. Lower therefore signals tighter binding. Compound `O=C(O)C(F)(F)C(F)(F)C(F)(F)C(F)(F)C(F)(F)C(F)(F)C(F)(F)C(F)(F)C(F)(F)C(F)(F)C(F)(F)C(F)(F)C(F)(F)C(F)(F)C(F)(F)F` [PFHxDA] registered a Ki of 8.4 ± 0.6 µM.
